Drawing on PubChem BioAssay (NCI), this text covers GI50 and TGI for two molecules.

What all share (assay): NCI anticancer screen, dose series, 48 h
Experiment [1] deals with DU-145 prostate.
The test system of experiment [2] is HCT-15 colon.
For experiment [3], the system named is HL-60(TB) leukemia.
Experiment [4] has as its system MOLT-4 leukemia.
Experiment [5] relates to NCI-H226 lung.
The subject of experiment [6] is NCI/ADR-RES ovarian.
For experiment [7], the system named is OVCAR-8 ovarian.
Experiment [8] has as its system SK-MEL-5 melanoma.
The subject of experiment [9] is SNB-75 CNS.
Experiment [10] deals with UACC-62 melanoma.

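These data come from cells grown in 96-well plates and exposed to compound for 48 hours at five concentrations. The concentration for 50% growth inhibition is given as GI50. TGI: total growth inhibition.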

Take `CN(C)c1ccc(Nc2c3ccccc3nc3ccccc23)cc1`: the GI50 in experiment [1] is 1.05 µM; in [2] it was 0.959 µM; in [3], 0.84 µM; in experiment [4] it was 0.357 µM; in experiment [5] it was 1.04 µM; in [6], 1.12 µM. The GI50 in experiment [7] is 0.868 µM; in experiment [8], 1.03 µM; in [9], 0.99 µM; in experiment [10] it was 1.19 µM. Further, the TGI in experiment [1] was 2.94 µM; in experiment [2] it was 3.49 µM; in experiment [3] it was 3.61 µM; in [4] it was 5.18 µM; in experiment [5], 2.68 µM; in [6], 2.93 µM. The TGI in experiment [7] is 3.25 µM; in experiment [8], 2.2 µM; in experiment [9], 4.09 µM; in [10], 2.98 µM.
For `c1ccc(-c2nn3c(c2-c2ccnc4cc(OCCN5CCOCC5)ccc24)CCC3)nc1`, the GI50 was 75.2 µM in experiment [1]; 31.5 µM in experiment [2]; above 100 µM in experiment [3]; 51.8 µM in [4]; above 81.2 µM in experiment [5]; 52.4 µM in [6]. The GI50 was above 82.6 µM in experiment [7], 43.9 µM in experiment [8], 59 µM in experiment [9] and above 100 µM in experiment [10]. Also, the TGI in experiment [1], in [2], in experiment [3], in experiment [4], in [5] and in experiment [6] was above 100 µM each time. The TGI in experiment [7], in [8], in experiment [9] and in experiment [10] was above 100 µM throughout.
